Data published in US20100056596A1, “RESISTANCE-REPELLENT RETROVIRAL PROTEASE INHIBITORS” (Sequoia Pharmaceuticals, priority 2004, published 2010).
Read-outs that look alike come from different tables or passages of the source.

Experiments:
wild type HIV-1 protease = target: T1, wild type HIV-1 protease (Human immunodeficiency virus type 1 group M subtype B, UniProt P04585); test: Ki against wild type (WT) HIV-1 protease; assay type: biochemical; conditions: WT
T1 construct: over 45 of the 99 amino acids of the HIV protease monomer

HIV-1 protease Mutant 8 = HIV-1 protease Mutant 8 (Human immunodeficiency virus type 1, UniProt P04585); test: Ki against HIV-1 protease Mutant 8; assay type: biochemical; conditions: Mutant 8
HIV-1 protease Mutant 9 = HIV-1 protease Mutant 9 (Human immunodeficiency virus type 1, UniProt P04585); test: Ki against HIV-1 protease Mutant 9; assay type: biochemical; conditions: Mutant 9
HIV-1 isolates, WT = test: In vitro drug sensitivity of HIV-1 laboratory isolates, WT; assay type: cell-based
Procedure: (§1) In Vitro Drug Sensitivity of HIV-1 Laboratory Isolates to PIs
(§2) The sensitivities of HIV-1 isolates against compounds of the invention were determined as previously described with minor modifications (Shiraska et al., Proc. Natl. Acad. Sci. USA, 92, 2398-2402 (1995)).

HIV-1 isolates, Mutant 8 = test: In vitro drug sensitivity of HIV-1 laboratory isolates, Mutant 8; assay type: cell-based
Procedure: as §1, §2

HIV-1 isolates, Mutant 9 = test: In vitro drug sensitivity of HIV-1 laboratory isolates, Mutant 9; assay type: cell-based
Procedure: as §1, §2

[1] = Human immunodeficiency virus 1, read-out: IC50 Mutant 8
[2] = Human immunodeficiency virus 1, read-out: IC50 Mutant 9
[3] = Mutant 8, read-out: IC50 Mutant 8
[4] = Mutant 9, read-out: IC50 Mutant 9

Compound	Ki (wild type HIV-1 protease) [nM]	Ki (HIV-1 protease Mutant 8) [nM]	Ki (HIV-1 protease Mutant 9) [nM]	IC50 (HIV-1 isolates, WT; Human immunodeficiency virus 1) [nM]	IC50 (HIV-1 isolates, Mutant 8; [1]) [nM]	IC50 (HIV-1 isolates, Mutant 9; [2]) [nM]	IC50 (HIV-1 isolates, WT; WT) [nM]	IC50 (HIV-1 isolates, Mutant 8; [3]) [nM]	IC50 (HIV-1 isolates, Mutant 9; [4]) [nM]
CC(C)CN(C[C@@H](O)[C@H](Cc1ccccc1)NC(=O)OC1CO[C@H]2OCC[C@@H]12)S(=O)(=O)c1ccc2c(c1)CCO2 (some centres unmarked)	< 0.1	< 0.3	1.5	1	13	157			
CC(C)CN(C[C@@H](O)[C@H](Cc1ccccc1)NC(=O)OC1CO[C@H]2OCC[C@@H]12)S(=O)(=O)c1ccc2c(c1)C(C)CO2 (some centres unmarked)	< 0.1		7.5	1.5	56	900			
CC(C)CN(C[C@@H](O)[C@H](Cc1ccccc1)NC(=O)OC1CO[C@H]2OCC[C@@H]12)S(=O)(=O)c1ccc2c(c1)CC(CO)O2 (some centres unmarked)	< 0.1	0.38	9	5.4	47	500			
CC(C)CN(C[C@@H](O)[C@H](Cc1ccccc1)NC(=O)OC1COC2OCCC12)S(=O)(=O)c1ccc2c(c1)C(=O)CCO2 (some centres unmarked)	< 0.1	0.42	4.9	3.5	42	625			
CC(C)CN(CC(O)C(Cc1ccccc1)NC(=O)OC1COC2OCCC12)S(=O)(=O)c1ccc2occc2c1 (centres unmarked) [Compound 101, {3-[(Benzofuran-5-sulfonyl)-isobutyl-amino]-1-benzyl-2-hydroxy-propyl}-carbamic acid hexahydro-furo[2,3-b]furan-3-yl ester]	< 0.1	< 0.3	0.5	1.6	16	120			
Cc1cc2cc(S(=O)(=O)N(CC(C)C)CC(O)C(Cc3ccccc3)NC(=O)OC3COC4OCCC34)ccc2o1 (centres unmarked) [Compound 102]	< 0.1	< 0.3	0.96	3.7	90	> 400			
Cc1coc2ccc(S(=O)(=O)N(CC(C)C)CC(O)C(Cc3ccccc3)NC(=O)OC3COC4OCCC34)cc12 (centres unmarked) [Compound 103]	< 0.1	< 0.3	0.48	3.7	35	300			
CC(C)CN(C[C@@H](O)[C@H](Cc1ccccc1)NC(=O)OC1COC2OCCC12)S(=O)(=O)c1ccc2oc(CBr)cc2c1 (some centres unmarked) [Compound 104]	< 0.1	< 0.3	0.41				8	41	230
CC(C)CN(CC(O)C(Cc1ccccc1)NC(=O)OC1COC2OCCC12)S(=O)(=O)c1ccc2oc(CN)cc2c1 (centres unmarked) [Compound 105]	< 0.1	< 0.3	1.9	7	30	220			
CC(=O)NCc1coc2ccc(S(=O)(=O)N(CC(C)C)C[C@@H](O)[C@H](Cc3ccccc3)NC(=O)OC3COC4OCCC34)cc12 (some centres unmarked) [Compound 107]	< 0.1	< 0.3	0.26				15	28	42
CC(C)CN(C[C@@H](O)[C@H](Cc1ccccc1)NC(=O)OC1COC2OCCC12)S(=O)(=O)c1ccc2occ(CN3CCOCC3)c2c1 (some centres unmarked) [Compound 108]	< 0.1	< 0.3	1.5				1.5	38	420
CC(C)CN(C[C@@H](O)[C@H](Cc1ccccc1)NC(=O)OC1COC2OCCC12)S(=O)(=O)c1ccc2occ(CN3CCCCC3)c2c1 (some centres unmarked) [Compound 109]	< 0.1	< 0.3	2.8				2	30	> 400
CC(C)CN(C[C@@H](O)[C@H](Cc1ccccc1)NC(=O)OC1COC2OCCC12)S(=O)(=O)c1ccc2occ(CNCC(=O)OC(C)(C)C)c2c1 (some centres unmarked) [Compound 110]	< 0.1	< 0.3	0.32				3.4	33	62
